Results taken from article PMC4067310, “From Pan-Reactive KV7 Channel Opener to Subtype Selective Opener/Inhibitor by Addition of a Methyl Group” (PLoS ONE, 2014).

Target: T1, KV7.4-L305V (Homo sapiens, UniProt P56696, L305V)
T1 construct: expressed in transfected cells; host or cells: Xenopus laevis oocytes injected with cRNA (pGEM-HE vector)
T1 sequence (P56696 1-695 L305V): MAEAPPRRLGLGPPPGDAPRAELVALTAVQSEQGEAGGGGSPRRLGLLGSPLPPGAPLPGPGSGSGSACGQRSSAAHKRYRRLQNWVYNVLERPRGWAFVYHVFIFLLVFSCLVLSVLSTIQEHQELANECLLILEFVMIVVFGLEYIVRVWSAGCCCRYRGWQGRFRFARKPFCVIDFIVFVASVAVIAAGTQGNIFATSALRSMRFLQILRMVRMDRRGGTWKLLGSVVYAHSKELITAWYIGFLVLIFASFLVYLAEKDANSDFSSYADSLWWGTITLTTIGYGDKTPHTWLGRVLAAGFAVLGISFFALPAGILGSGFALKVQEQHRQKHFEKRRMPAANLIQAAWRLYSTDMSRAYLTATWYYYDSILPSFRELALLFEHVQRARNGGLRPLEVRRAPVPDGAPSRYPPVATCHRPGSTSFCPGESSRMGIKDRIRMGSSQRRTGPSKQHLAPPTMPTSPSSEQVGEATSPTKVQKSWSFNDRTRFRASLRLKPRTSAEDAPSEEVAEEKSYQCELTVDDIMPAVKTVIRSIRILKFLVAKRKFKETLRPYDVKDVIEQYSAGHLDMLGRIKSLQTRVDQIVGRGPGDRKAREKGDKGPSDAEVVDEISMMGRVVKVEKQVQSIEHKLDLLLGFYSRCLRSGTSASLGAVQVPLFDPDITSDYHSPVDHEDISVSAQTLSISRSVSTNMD
Experiment: Two-electrode voltage-clamp of mutant KV7.4-L305V in Xenopus laevis oocytes
Assay type: cell-based
Details: 10 µM SMB-1, +50 mV, n = 6; read-out: current amplitude, % of control
Description: Point mutations were introduced using mutated oligonucleotide extension (PfuTurbo Polymerase, Stratagene, La Jolla, CA, USA) from a plasmid template harboring the cDNA of interest, digested with DpnI (Fermentas, St. Leon-Roth, Germany) and transformed into E.coli XL1 Blue cells. The construct was verified by complete DNA sequencing of the cDNA insert. cRNA was prepared from linearized human wild-type (WT) and mutant KV7 channels in the pGEM-HE vector using the T7 m-Message Machine kit (Ambion, Austin, TX, USA) according to the manufacturer's instructions.
Extraction of Xenopus laevis oocytes and injection of cRNA was performed as described previously. Oocytes were kept in Modified Barth's Saline (in mM: 88 NaCl, 1 KCl, 2.4 NaHCO3, 0.41 CaCl2, 0.82 MgSO4, 0.3 Ca(NO3)2, 15 HEPES, pH 7.4 supplemented with 100 U/mL penicillin and 100 µg/mL streptomycin) at 18°C, and currents were recorded after 2-7 days. […]
KV7 currents in Xenopus laevis oocytes were recorded using two-electrode voltage-clamp at room temperature in Ringer buffer (in mM: 115 NaCl, 2.5 KCl, 1.8 CaCl2, 0.1 MgCl2, 10 HEPES, pH 7.4) as described previously. Data was acquired using pCLAMP 10.2 software (Molecular Devices, CA, USA) and analyzed using pCLAMP 10.2 and GraphPad Prism 4.0 (GraphPad Software Inc., CA, USA). […]

Question: `C[C@@H](c1ccc2c(c1)N(CC1CC1)CCO2)N(C)C(=O)/C=C/c1ccccc1F` [SMB-1, (E)-N-[(S)-1-(4-Cyclopropylmethyl-3,4-dihydro-2H-1,4-benzoxazin-6-yl)-ethyl]-3-(2-fluoro-phenyl)-N-methyl-acrylamide] was tested. Which remaining activity at 10 µM did it give?
Answer: 101 ± 10.3%
